Measured values reported in PubChem BioAssay AID328 (DTP/NCI, 2004).
“And” between values parts separate entries of the source, which are not always exact repeats. Equal values may be shown once. Toxic doses and inconclusive results are not listed.

Test system: BDF1 mice, P388 leukemia ip, median survival T/C
Experiment: NCI In Vivo Anticancer Drug Screen. Data for tumor model P388 Leukemia (intraperitoneal) in B6D2F1 (BDF1) mice
Settings: endpoint: median survival time, higher = longer survival
Procedure, shortened: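 Steps: implant the tumour, treat one group with compound and another with vehicle, record survival, then divide treated by control.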

[1] = dose: 25.0 mg/kg/injection, schedule: Q01DX009 (ip), vehicle: saline with Tween-80
[2] = dose: 50.0 mg/kg/injection, schedule: Q01DX009 (ip), vehicle: saline with Tween-80
[3] = dose: 50.0 mg/kg/injection, schedule: Q01DX009 (ip), vehicle: saline
[4] = dose: 100.0 mg/kg/injection, schedule: Q01DX009 (ip), vehicle: saline
[5] = dose: 200.0 mg/kg/injection, schedule: Q01DX009 (ip), vehicle: saline
[6] = dose: 25.0 mg/kg/injection, schedule: Q01DX009 (ip), vehicle: water
[7] = dose: 50.0 mg/kg/injection, schedule: Q01DX009 (ip), vehicle: water
[8] = dose: 100.0 mg/kg/injection, schedule: Q01DX009 (ip), vehicle: Klucel (hydroxypropylcellulose) (HPC)
[9] = dose: 200.0 mg/kg/injection, schedule: Q01DX009 (ip), vehicle: Klucel (hydroxypropylcellulose) (HPC)
[10] = dose: 400.0 mg/kg/injection, schedule: Q01DX009 (ip), vehicle: Klucel (hydroxypropylcellulose) (HPC)
[11] = dose: 100.0 mg/kg/injection, schedule: Q01DX009 (ip), vehicle: saline with Tween-80
[12] = dose: 200.0 mg/kg/injection, schedule: Q01DX009 (ip), vehicle: saline with Tween-80
[13] = dose: 100.0 mg/kg/injection, schedule: Q04DX003 (ip), vehicle: saline with Tween-80
[14] = dose: 200.0 mg/kg/injection, schedule: Q04DX003 (ip), vehicle: saline with Tween-80
[15] = dose: 25.0 mg/kg/injection, schedule: Q01DX009 (ip), vehicle: saline

## Cn1c(=O)c2nc(-c3ccc(Cl)cc3)c(-c3ccc(Cl)cc3)nc2n(C)c1=O
dose: 100.0 mg/kg/injection, schedule: Q01DX001 (ip), vehicle: saline with Tween-80
  T/C: 110 % of control
dose: 200.0 mg/kg/injection, schedule: Q01DX001 (ip), vehicle: saline with Tween-80
  T/C: 112 % of control

## Cn1c2nc(=O)n(-c3ccccc3)c(=O)c-2nc2ccccc21
dose: 12.5 mg/kg/injection, schedule: Q01DX009 (ip), vehicle: saline with Tween-80
  T/C: 95 % of control
[1]
  T/C: 104 % of control
[2]
  T/C: 91 % of control and 95 % of control

## COCCCC/C(=N\OCCN)c1ccc(C(F)(F)F)cc1
[3]
  T/C: 103 % of control
[4]
  T/C: 112 % of control
[5]
  T/C: 108 % of control

## O=C1c2c(O)ccc(O)c2C(=O)c2c(NCCOCCO)ccc(NCCOCCO)c21
dose: 25.0 mg/kg/injection, schedule: Q01DX005 (ip), vehicle: saline with Tween-80
  T/C: 102 % of control
dose: 50.0 mg/kg/injection, schedule: Q01DX005 (ip), vehicle: saline with Tween-80
  T/C: 100 % of control
dose: 100.0 mg/kg/injection, schedule: Q01DX005 (ip), vehicle: saline with Tween-80
  T/C: 118 % of control
dose: 200.0 mg/kg/injection, schedule: Q01DX005 (ip), vehicle: saline with Tween-80
  T/C: 109 % of control

## Nc1ccc2cn[nH]c2c1
[6]
  T/C: 99 % of control
[7]
  T/C: 103 % of control
dose: 50.0 mg/kg/injection, schedule: Q04DX003 (ip), vehicle: water
  T/C: 103 % of control
dose: 100.0 mg/kg/injection, schedule: Q01DX009 (ip), vehicle: water
  T/C: 89 % of control
dose: 100.0 mg/kg/injection, schedule: Q04DX003 (ip), vehicle: water
  T/C: 116 % of control
dose: 200.0 mg/kg/injection, schedule: Q01DX009 (ip), vehicle: water
  T/C: 94 % of control
dose: 200.0 mg/kg/injection, schedule: Q04DX003 (ip), vehicle: water
  T/C: 110 % of control
dose: 400.0 mg/kg/injection, schedule: Q01DX009 (ip), vehicle: water
  T/C: 94 % of control
dose: 400.0 mg/kg/injection, schedule: Q04DX003 (ip), vehicle: water
  T/C: 116 % of control

## O=C(O)C(Cc1ccc(O)cc1)c1ccccc1 (centres undefined)
[8]
  T/C: 86 % of control
dose: 100.0 mg/kg/injection, schedule: Q04DX003 (ip), vehicle: Klucel (hydroxypropylcellulose) (HPC)
  T/C: 90 % of control
[9]
  T/C: 95 % of control
dose: 200.0 mg/kg/injection, schedule: Q04DX003 (ip), vehicle: Klucel (hydroxypropylcellulose) (HPC)
  T/C: 90 % of control
[10]
  T/C: 109 % of control
dose: 400.0 mg/kg/injection, schedule: Q04DX003 (ip), vehicle: Klucel (hydroxypropylcellulose) (HPC)
  T/C: 95 % of control

## O=C1C=CN(C2OC(CO)C(O)C2O)C(=O)C1 (centres undefined)
dose: 22.0 mg/kg/injection, schedule: Q01DX009 (ip), vehicle: saline
  T/C: 103 % of control
dose: 33.0 mg/kg/injection, schedule: Q01DX009 (ip), vehicle: saline
  T/C: 107 % of control
[3]
  T/C: 87 % of control and 101 % of control (2×)
dose: 75.0 mg/kg/injection, schedule: Q01DX009 (ip), vehicle: saline
  T/C: 110 % of control
[4]
  T/C: 87 % of control
[5]
  T/C: 91 % of control
dose: 400.0 mg/kg/injection, schedule: Q01DX009 (ip), vehicle: saline
  T/C: 100 % of control

## CC(C)C(=O)OCC1OC(n2cnc3c(=S)nc[nH]c32)C(OC(=O)C(C)C)C1OC(=O)C(C)C (centres undefined)
dose: 88.0 mg/kg/injection, schedule: Q01DX009 (ip), vehicle: saline with Tween-80
  T/C: 104 % of control
[11]
  T/C: 118 % of control
dose: 133.0 mg/kg/injection, schedule: Q01DX009 (ip), vehicle: saline with Tween-80
  T/C: 95 % of control
[12]
  T/C: 100 % of control
dose: 300.0 mg/kg/injection, schedule: Q01DX009 (ip), vehicle: saline with Tween-80
  T/C: 100 % of control
dose: 400.0 mg/kg/injection, schedule: Q01DX009 (ip), vehicle: saline with Tween-80
  T/C: 100 % of control

## CCCCCCCCCCCCCCCCCCCCCCCCCCCC(=O)OCC(O)CO (centres undefined)
dose: 0.25 mg/kg/injection, schedule: Q01DX009 (ip), vehicle: saline + alcohol
  T/C: 110 % of control
dose: 1.0 mg/kg/injection, schedule: Q01DX009 (ip), vehicle: saline + alcohol
  T/C: 105 % of control

## OCCN1CCNC1=S
dose: 100.0 mg/kg/injection, schedule: Q04DX003 (ip), vehicle: saline
  T/C: 95 % of control
dose: 200.0 mg/kg/injection, schedule: Q04DX003 (ip), vehicle: saline
  T/C: 91 % of control
dose: 400.0 mg/kg/injection, schedule: Q04DX003 (ip), vehicle: saline
  T/C: 91 % of control

## Cc1cc(C(=O)NN)nn1CCO
dose: 87.5 mg/kg/injection, schedule: Q01DX009 (ip), vehicle: saline with Tween-80
  T/C: 89 % of control
dose: 175.0 mg/kg/injection, schedule: Q01DX009 (ip), vehicle: saline with Tween-80
  T/C: 88 % of control
dose: 350.0 mg/kg/injection, schedule: Q01DX009 (ip), vehicle: saline with Tween-80
  T/C: 114 % of control

## CCCCCCCCCCCC[N+]1(CCCCCCCCCCCC)CCCC(C)C1 (centres undefined)
dose: 0.37 mg/kg/injection, schedule: Q01DX009 (ip), vehicle: Klucel (hydroxypropylcellulose) (HPC)
  T/C: 108 % of control

## COc1ccc2c(c1)CCC(=O)O2
dose: 100.0 mg/kg/injection, schedule: Q04DX003 (ip), vehicle: saline sonified
  T/C: 91 % of control
dose: 200.0 mg/kg/injection, schedule: Q04DX003 (ip), vehicle: saline sonified
  T/C: 95 % of control
dose: 400.0 mg/kg/injection, schedule: Q04DX003 (ip), vehicle: saline sonified
  T/C: 100 % of control

## CC(C)(C)c1cc(CO)c(Sc2c(CO)cc(C(C)(C)C)cc2CO)c(CO)c1
dose: 400.0 mg/kg/injection, schedule: Q01DX001 (ip), vehicle: saline with Tween-80
  T/C: 90 % of control

## CC1(O)C=CC(=O)C=C1
[6]
  T/C: 157 % of control
[7]
  T/C: 173 % of control

## OC1C2CCC(CC2)C1O (centres undefined)
dose: 4.5 mg/kg/injection, schedule: Q01DX009 (ip), vehicle: saline with Tween-80
  T/C: 100 % of control
dose: 9.0 mg/kg/injection, schedule: Q01DX009 (ip), vehicle: saline with Tween-80
  T/C: 86 % of control
dose: 9.0 mg/kg/injection, schedule: Q04DX003 (ip), vehicle: saline with Tween-80
  T/C: 90 % of control
dose: 18.0 mg/kg/injection, schedule: Q04DX003 (ip), vehicle: saline with Tween-80
  T/C: 90 % of control

## CC(C)(C)N(O)N=O.CC(C)(C)N(O)N=O.[Cu]
dose: 1.56 mg/kg/injection, schedule: Q01DX001 (ip), vehicle: saline
  T/C: 107 % of control
dose: 3.13 mg/kg/injection, schedule: Q01DX001 (ip), vehicle: saline
  T/C: 109 % of control
dose: 6.25 mg/kg/injection, schedule: Q01DX001 (ip), vehicle: saline
  T/C: 106 % of control

## COc1cc(C(Cc2ccnc3ccccc23)Cc2ccnc3ccccc23)ccc1N(C)C
[13]
  T/C: 91 % of control
[14]
  T/C: 104 % of control
dose: 400.0 mg/kg/injection, schedule: Q04DX003 (ip), vehicle: saline with Tween-80
  T/C: 115 % of control

## CCc1nc2nc(C)cc(C)n2n1
dose: 12.5 mg/kg/injection, schedule: Q01DX009 (ip), vehicle: saline
  T/C: 91 % of control
[15]
  T/C: 89 % of control
[3]
  T/C: 97 % of control and 120 % of control
[4]
  T/C: 86 % of control and 91 % of control
[5]
  T/C: 104 % of control

## Nc1nccnc1N
[2]
  T/C: 110 % of control
dose: 50.0 mg/kg/injection, schedule: Q04DX003 (ip), vehicle: saline with Tween-80
  T/C: 95 % of control
[11]
  T/C: 115 % of control
[13]
  T/C: 100 % of control
[12]
  T/C: 120 % of control
[14]
  T/C: 87 % of control

## O=c1ccccn1CC1(c2ccccc2)OCCO1
[8]
  T/C: 95 % of control
[9]
  T/C: 91 % of control
[10]
  T/C: 95 % of control

## CC(=O)OC1CCC2(C)C(CC(=O)C(C)C23CCC2(C=COC2)O3)C1(C)C (centres undefined)
[15]
  T/C: 113 % of control
[3]
  T/C: 105 % of control
[11]
  T/C: 109 % of control
[4]
  T/C: 122 % of control
[12]
  T/C: 102 % of control

## O=C(NC(Cc1ccccc1)C(=O)CCl)OCc1ccccc1 (centres undefined)
dose: 4.4 mg/kg/injection, schedule: Q01DX009 (ip), vehicle: saline with Tween-80
  T/C: 112 % of control
dose: 6.6 mg/kg/injection, schedule: Q01DX009 (ip), vehicle: saline with Tween-80
  T/C: 120 % of control
dose: 15.0 mg/kg/injection, schedule: Q01DX009 (ip), vehicle: saline with Tween-80
  T/C: 112 % of control
[1]
  T/C: 105 % of control and 113 % of control
dose: 37.5 mg/kg/injection, schedule: Q01DX009 (ip), vehicle: saline with Tween-80
  T/C: 86 % of control
